Laboratory results: PMC4193777 (PLoS ONE, 2014)

What was measured:
[1] = tested on: neutrophils; test: Calcium mobilization in neutrophils; format: cell-based, human; details: WKYMVM 100 nM or F2Pal10 500 nM
Experimental: Neutrophils or transfected HL-60 cells at a density of 5×10^7 cells/ml in KRG containing 0.1% BSA were loaded with 5 µM FURA 2-AM for 30 minutes in the dark at room temperature. The cells were then diluted 1/2 in RPMI 1640 culture medium without phenol red (PAA Laboratories GmbH, Pasching, Austria) and centrifuged. Finally, the cells were washed once with KRG and resuspended in the same buffer at a density of 2×10^7/ml. Calcium measurements were carried out in a PerkinElmer fluorescence spectrophotometer (LC50), with excitation wavelengths of 340 nm and 380 nm, an emission wavelength of 509 nm, and slit widths of 5 nm and 10 nm, respectively. The transient rise in intracellular calcium is presented as the ratio of fluorescence intensities (340 nm: 380 nm) detected. The measuring cuvette contained catalase (2000 U) to counteract inactivation of the chemoattractants by the MPO-H2O2-system. […] The relative calcium level was expressed as a ratio between Fluo-3 and Fura Red (FL-1/FL-3) fluorescence over time.
Figure 5 F2Pal10 induces pertussis toxin sensitive superoxide production and triggers mobilization of calcium from intracellular stores. […] Abscissa, time of study (sec); ordinate, fluorescence (arbitrary unit). […]

[2] = tested on: FPR2; test: Calcium mobilization in undifferentiated HL-60 cells overexpressing FPR2; format: cell-based; details: Fura-2; F2Pal10 10 nM
Text: The procedures used to obtain stable expression of FPR1 and FPR2 in undifferentiated HL-60 cells have been previously described. To prevent possible auto-differentiation due to the accumulation of differentiation factors in the culture medium, cells were passed twice a week before they reached a density of 2×10^6 cells/ml. At each passage, an aliquot of the cell culture was centrifuged, the supernatant was discarded and the cell pellet was resuspended in fresh RPMI 1640 medium containing FCS (10%), PEST (1%), and G418 (1 mg/ml).
Neutrophils or transfected HL-60 cells at a density of 5×10^7 cells/ml in KRG containing 0.1% BSA were loaded with 5 µM FURA 2-AM for 30 minutes in the dark at room temperature. […] Calcium measurements were carried out in a PerkinElmer fluorescence spectrophotometer (LC50), with excitation wavelengths of 340 nm and 380 nm, an emission wavelength of 509 nm, and slit widths of 5 nm and 10 nm, respectively. The transient rise in intracellular calcium is presented as the ratio of fluorescence intensities (340 nm: 380 nm) detected. […] The relative calcium level was expressed as a ratio between Fluo-3 and Fura Red (FL-1/FL-3) fluorescence over time.
Figure 1 The F2Pal10 pepducin specifically activates FPR2. […] The release of superoxide anions was recorded continuously. […] Abscissa, time of study (sec); ordinate, fluorescence (arbitrary units).

`CSCC[C@H](NC(=O)[C@@H](NC(=O)[C@H](CCSC)NC(=O)[C@H](Cc1ccc(O)cc1)NC(=O)[C@H](CCCCN)NC(=O)[C@@H](N)Cc1c[nH]c2ccccc12)C(C)C)C(N)=O` [WKYMVM] was tested, and the “rise in cytosolic Ca2+ in neutrophils” value ([1]; Fluo-3/Fura Red, without EGTA) was “a rise in the cytosolic concentration of Ca^2+ was induced”, the “rise in cytosolic Ca2+ in neutrophils, with EGTA” value ([1]; extracellular Ca2+ removed by EGTA (2 mM)) was “The rise was evident also when extracellular Ca^2+ was removed” and the “intracellular calcium response, FPR2 HL-60 cells” value [2] was “time course of the response was very similar”.
